Laboratory results as given in patent US11464770B2, “Anticancer pharmaceutical composition” (NATIONAL CANCER CENTER, priority 2016, dated 2022).
Read-outs that look alike come from different tables or passages of the source.

How the values were obtained:
[1] = system: breast cancer cell lines (e.g. MDA-MB-231, SK-BR-3, MDA-MB-468, HCC1954); assay: Cell based assay, cell viability (CellTiter-Glo), breast cancer cell lines
Procedure: (§1) Commercially available bladder cancer, prostate cancer, lung cancer, breast cancer, blood cancer, pancreatic cancer, colorectal cancer, brain cancer, neuroblastoma, melanoma, liver cancer, cervical carcinoma, ovarian cancer, renal cancer, and papilloma cell lines were each treated with trypsin-EDTA and cultured, followed by being seeded in each well of a 96 well plate. After 24 hours of treatment at constant temperature, the respective cells were treated with the candidate compound so that a final concentration became 0 to 2 μM. The treated cells were additionally cultured for 72 hours, and cell viability was measured by using an ATP detection method (CellTiter-Glo® Luminescent Cell Viability Assay, Promega).

[2] = system: melanoma cell lines; assay: Cell based assay, cell viability (CellTiter-Glo), melanoma cell lines; details: Homo sapiens; LOX-IMVI cell line
Procedure: as §1

[3] = system: ovarian cancer cell lines; assay: Cell based assay, cell viability (CellTiter-Glo), ovarian cancer cell lines; details: Homo sapiens; OVCAR-3 cells
Procedure: as §1

[4] = Breast cancer cell line MDA-MB-231-L/DOX, 72 hours, CellTiter-Glo, read-out: IC50, MDA-MB-231-L/DOX
[5] = Homo sapiens, Breast cancer cell line BT-20, 72 hours, CellTiter-Glo, read-out: IC50, BT-20
[6] = Homo sapiens, Breast cancer cell line HCC1395, 72 hours, CellTiter-Glo, read-out: IC50, HCC1395
[7] = Homo sapiens, Breast cancer cell line HCC1954, 72 hours, CellTiter-Glo, read-out: IC50, HCC1954
[8] = Homo sapiens, Breast cancer cell line JIMT-1, 72 hours, CellTiter-Glo, read-out: IC50, JIMT-1
[9] = Homo sapiens, Breast cancer cell line MCF7, 72 hours, CellTiter-Glo, read-out: IC50, MCF7
[10] = Homo sapiens, Breast cancer cell line MDA-MB-231, 72 hours, CellTiter-Glo, read-out: IC50, MDA-MB-231
[11] = Homo sapiens, Breast cancer cell line MDA-MB-468, 72 hours, CellTiter-Glo, read-out: IC50, MDA-MB-468
[12] = Homo sapiens, Breast cancer cell line SK-BR-3, 72 hours, CellTiter-Glo, read-out: IC50, SK-BR-3
[13] = Homo sapiens, BT-20 cells, 72 hours treatment, CellTiter-Glo cell viability, read-out: IC50, Breast cancer cell line BT-20
[14] = Homo sapiens, HCC1395 cells, 72 hours treatment, CellTiter-Glo cell viability, read-out: IC50, Breast cancer cell line HCC1395
[15] = Homo sapiens, HCC1954 cells, 72 hours treatment, CellTiter-Glo cell viability, read-out: IC50, Breast cancer cell line HCC1954
[16] = Homo sapiens, JIMT-1 cells, 72 hours treatment, CellTiter-Glo cell viability, read-out: IC50, Breast cancer cell line JIMT-1
[17] = Homo sapiens, MCF7 cells, 72 hours treatment, CellTiter-Glo cell viability, read-out: IC50, Breast cancer cell line MCF7
[18] = Homo sapiens, MDA-MB-231 cells, 72 hours treatment, CellTiter-Glo cell viability, read-out: IC50, Breast cancer cell line MDA-MB-231
[19] = Homo sapiens, MDA-MB-468 cells, 72 hours treatment, CellTiter-Glo cell viability, read-out: IC50, Breast cancer cell line MDA-MB-468
[20] = Homo sapiens, SK-BR-3 cells, 72 hours treatment, CellTiter-Glo cell viability, read-out: IC50, Breast cancer cell line SK-BR-3
[21] = MDA-MB-231-L/DOX cells, 72 hours treatment, CellTiter-Glo cell viability, read-out: IC50, Breast cancer cell line MDA-MB-231-L/DOX

| SMILES | IC50 [1, 4] | IC50 [1, 5] | IC50 [1, 6] | IC50 [1, 7] | IC50 [1, 8] | IC50 [1, 9] | IC50 [1, 10] | IC50 [1, 11] | IC50 [1, 12] | IC50 [2] | IC50 [3] | IC50 [1, 13] | IC50 [1, 14] | IC50 [1, 15] | IC50 [1, 16] | IC50 [1, 17] | IC50 [1, 18] | IC50 [1, 19] | IC50 [1, 20] | IC50 [1, 21] |
| --- | --- | --- | --- | --- | --- | --- | --- | --- | --- | --- | --- | --- | --- | --- | --- | --- | --- | --- | --- | --- |
| CC(=O)c1c(Sc2ccccc2)[nH]c2c(Br)ccc(Cl)c2c1=O [Compound 12, 3-acetyl-8-bromo-5-chloro-2-(phenylthio)quinolin-4(1H)-one] | > 2 µM | > 2 µM | > 10 µM | > 2 µM | > 10 µM | > 2 µM | > 2 µM | > 2 µM | > 2 µM | > 2 µM | > 2 µM | – | – | – | – | – | – | – | – | – |
| Cc1cc(C[S+]([O-])c2[nH]c3c(Cl)ccc(Cl)c3c(=O)c2C(=O)c2ccccc2)no1 (stereo not drawn) [Compound 88, 3-benzoyl-5,8-dichloro-2-(((5-methylisoxazol-3-yl)methyl)sulfinyl)quinolin-4(1H)-one] | – | – | – | – | – | – | – | – | – | > 2 µM | > 2 µM | > 2 µM | > 10 µM | > 2 µM | > 10 µM | > 2 µM | > 2 µM | > 2 µM | > 2 µM | > 2 µM |
| CC(=O)c1c([S+]([O-])CC#N)[nH]c2c(Br)ccc(Cl)c2c1=O (stereo not drawn) [Compound 65, 2-((3-acetyl-8-bromo-5-chloro-4-oxo-1,4-dihydroquinolin-2-yl)sulfinyl)acetonitrile] | > 2 µM | > 2 µM | > 10 µM | > 2 µM | > 10 µM | > 2 µM | > 2 µM | > 2 µM | > 2 µM | > 2 µM | > 2 µM | – | – | – | – | – | – | – | – | – |
| CC(=O)c1c([S+]([O-])C(C)c2ccccc2)[nH]c2c(Br)ccc(Cl)c2c1=O (stereo not drawn) [Compound 26, 3-acetyl-8-bromo-5-chloro-2-((1-phenylethyl)sulfinyl)quinolin-4(1H)-one] | > 2 µM | > 2 µM | > 10 µM | > 2 µM | > 10 µM | > 2 µM | > 2 µM | > 2 µM | > 2 µM | > 2 µM | > 2 µM | – | – | – | – | – | – | – | – | – |
| CC(=O)c1c([S+](C)[O-])n(S(=O)(=O)c2ccc(C(C)(C)C)cc2)c2c(Br)ccc(Cl)c2c1=O (stereo not drawn) [Compound 42, 3-acetyl-8-bromo-1-((4-(tert-butyl)phenyl)sulfonyl)-5-chloro-2-(methylsulfinyl)quinolin-4(1H)-one] | > 2 µM | > 2 µM | > 10 µM | > 2 µM | > 10 µM | > 2 µM | > 2 µM | > 2 µM | 1.57 µM | > 2 µM | > 2 µM | – | – | – | – | – | – | – | – | – |
| CC(=O)c1c(S(=O)(=O)Cc2ccccc2)nc2c(Br)ccc(Cl)c2c1O [Compound 54, 1-(2-(benzylsulfonyl)-8-bromo-5-chloro-4-hydroxyquinolin-3-yl)ethan-1-one] | > 2 µM | > 2 µM | > 10 µM | > 2 µM | > 10 µM | > 2 µM | > 2 µM | > 2 µM | > 2 µM | > 2 µM | > 2 µM | – | – | – | – | – | – | – | – | – |
| COc1cccc2[nH]c([S+]([O-])Cc3ccc(S(F)(F)(F)(F)F)cc3)c(C(C)=O)c(=O)c12 (stereo not drawn) [Compound 93, 3-acetyl-5-methoxy-2-((4-(pentafluoro--sulfanyl)benzyl)sulfinyl)quinolin-4(1H)-one] | – | – | – | – | – | – | – | – | – | > 2 µM | > 2 µM | > 2 µM | > 10 µM | > 2 µM | > 10 µM | > 2 µM | > 2 µM | > 2 µM | > 2 µM | > 2 µM |
| CSc1c(C(C)=O)c(=O)c2c(Cl)ccc(Br)c2n1S(=O)(=O)c1ccc([N+](=O)[O-])cc1 [Compound 38, 3-acetyl-8-bromo-5-chloro-2-(methylthio)-1-((4-nitrophenyl)sulfonyl)quinolin-4(1H)-one] | > 2 µM | > 2 µM | > 10 µM | > 2 µM | > 10 µM | > 2 µM | > 2 µM | > 2 µM | > 2 µM | > 2 µM | > 2 µM | – | – | – | – | – | – | – | – | – |
| CC(=O)c1c(S/C=C\C(=O)O)[nH]c2c(Br)ccc(Cl)c2c1=O [Compound 67, (Z)-3-((3-acetyl-8-bromo-5-chloro-4-oxo-1,4-dihydroquinolin-2-yl)thio)acrylic acid] | > 2 µM | > 2 µM | > 10 µM | > 2 µM | > 10 µM | > 2 µM | > 2 µM | > 2 µM | > 2 µM | > 2 µM | > 2 µM | – | – | – | – | – | – | – | – | – |
| CC(=O)c1c([S+]([O-])Cc2ccc(Cl)cc2)[nH]c2c(Br)ccc(Cl)c2c1=O (stereo not drawn) [Compound 11, 3-acetyl-8-bromo-5-chloro-2-((4-chlorobenzyl)sulfinyl)quinolin-4(1H)-one] | > 2 µM | > 2 µM | > 10 µM | > 2 µM | > 10 µM | > 2 µM | > 2 µM | > 2 µM | > 2 µM | > 2 µM | > 2 µM | – | – | – | – | – | – | – | – | – |
| CC(=O)c1c([S+]([O-])Cc2ccccc2)n(C(=O)c2ccc(Br)cc2)c2c(Br)ccc(Cl)c2c1=O (stereo not drawn) [Compound 20, 3-acetyl-2-(benzylsulfinyl)-8-bromo-1-(4-bromobenzoyl)-5-chloroquinolin-4(1H)-one] | > 2 µM | > 2 µM | > 10 µM | > 2 µM | > 10 µM | > 2 µM | > 2 µM | > 2 µM | > 2 µM | > 2 µM | > 2 µM | – | – | – | – | – | – | – | – | – |
| CC(=O)c1c(SCc2ccc([N+](=O)[O-])cc2)[nH]c2c(Br)ccc(Cl)c2c1=O [Compound 32, 3-acetyl-8-bromo-5-chloro-2-((4-nitrobenzyl)thio)quinolin-4(1H)-one] | > 2 µM | > 2 µM | > 10 µM | > 2 µM | > 10 µM | > 2 µM | > 2 µM | > 2 µM | > 2 µM | > 2 µM | > 2 µM | – | – | – | – | – | – | – | – | – |
| COc1ccccc1[S+]([O-])c1[nH]c2c(Br)ccc(Cl)c2c(=O)c1C(C)=O (stereo not drawn) [Compound 15, 3-acetyl-8-bromo-5-chloro-2-((2-methoxyphenyl)sulfinyl)quinolin-4(1H)-one] | > 2 µM | > 2 µM | > 10 µM | > 2 µM | > 10 µM | > 2 µM | > 2 µM | > 2 µM | 1.68 µM | > 2 µM | > 2 µM | – | – | – | – | – | – | – | – | – |
| CSc1c(C(C)=O)c(=O)c2c(Cl)ccc(Br)c2n1S(C)(=O)=O [Compound 35, 3-acetyl-8-bromo-5-chloro-1-(methylsulfonyl)-2-(methylthio)quinolin-4(1H)-one] | > 2 µM | > 2 µM | > 10 µM | > 2 µM | > 10 µM | > 2 µM | > 2 µM | > 2 µM | > 2 µM | > 2 µM | > 2 µM | – | – | – | – | – | – | – | – | – |
| CC(=O)c1c([S+]([O-])C(C)C)[nH]c2c(Br)ccc(Cl)c2c1=O (stereo not drawn) [Compound 25, 3-acetyl-8-bromo-5-chloro-2-(isopropylsulfinyl)quinolin-4(1H)-one] | > 2 µM | > 2 µM | > 10 µM | > 2 µM | > 10 µM | > 2 µM | > 2 µM | > 2 µM | 1.72 µM | > 2 µM | > 2 µM | – | – | – | – | – | – | – | – | – |
| CC(=O)c1c([S+]([O-])Cc2ccc(S(F)(F)(F)(F)F)cc2)[nH]c2c(Br)ccc(Cl)c2c1=O (stereo not drawn) [Compound 68, 3-acetyl-8-bromo-5-chloro-2-((4-(pentafluoro-16-sulfanyl)benzyl)sulfinyl)quinolin-4(1H)-one] | > 2 µM | > 2 µM | > 10 µM | > 2 µM | > 10 µM | > 2 µM | 1.22 µM | > 2 µM | 1.23 µM | 0.96 µM | 1.16 µM | – | – | – | – | – | – | – | – | – |
| CC(=O)c1c(SCc2cccc(C#N)c2)[nH]c2c(Br)ccc(Cl)c2c1=O [Compound 27, 3-(((3-acetyl-8-bromo-5-chloro-4-oxo-1,4-dihydroquinolin-2-yl)thio)methyl)benzonitrile] | > 2 µM | > 2 µM | > 10 µM | > 2 µM | > 10 µM | > 2 µM | > 2 µM | > 2 µM | > 2 µM | > 2 µM | > 2 µM | – | – | – | – | – | – | – | – | – |
| CSc1c(C(C)=O)c(=O)c2c(Cl)ccc(Br)c2n1S(=O)(=O)c1ccc(C(C)(C)C)cc1 [Compound 40, 3-acetyl-8-bromo-1-((4-(tert-butyl)phenyl)sulfonyl)-5-chloro-2-(methylthio)quinolin-4(1H)-one] | > 2 µM | > 2 µM | > 10 µM | > 2 µM | > 10 µM | > 2 µM | > 2 µM | > 2 µM | > 2 µM | > 2 µM | > 2 µM | – | – | – | – | – | – | – | – | – |
